Measurements taken from patent US20030149000A1, “Method for the treatment of disorders associated with apoptosis using N-heterocyclic glyoxylamide compounds” (Shionogi & Co., Ltd., priority 1998, published 2003).

Legend:
[1] = system: hPLA2-II-induced neuronal cell death; test: MTT reduction assay of neuronal survival after hPLA2-II treatment; format: cell-based, Sprague-Dawley rat
Description: (§1) According to a method disclosed in Neurosci. Lett. 203, 175-178 Ueda K. et al, Neuronal cultures were prepared from cerebral cortex of 19-day-old Sprague-Dawley rat embryos. The cerebral cortices were dissociated in isotonic buffer (137 mM NaCl, 5.4 mM KCl, 0.17 mM Na2HPO4, 0.22 mM KH2PO4, 5.5 mM Glucose, 59 mM Sucrose; volume of each buffer is 25 ml) with 4 mg/ml trypsin and 0.4 mg/ml deoxyribonuclease I. Cells were plated at a density of 2.5×10^5 cells/cm^2 on poly-L-lysine coated dishes in conditioning medium, Leibovitz's L-15 medium supplemented with 5% fetal calf serum and 5% horse serum. Culture medium was exchanged for conditioning medium containing 0.1 mM arabinosylcytosine C on day 1 after plating. Cultured neurons were used for the experiments on day 2 of culture.
For assessment of neurotoxicity of hPLA2-II according to a method disclosed in Neurosci. […] Absorbance at 570 nm were measured with a microplate reader.
[…] MTT reducing activity was determined 48 hr after hPLA2-II-treatment.
At the indicated time after the treatment with hPLA2-II (1 μM), the compound prepared in Example 2 (final concentration=10 μM) was added to the culture medium. Data are expressed as mean±SEM values (n=4). *P<0.05, **P<0.01, compared with vehicle-treated conditions by ANOVA followed by Dunnett's test. […]

[2] = rats after transient middle cerebral artery occlusion; cited from earlier work
[3] = system: cortical neurons; test: Ultrastructural changes in cortical neurons after hPLA2-II treatment (electron microscope); format: cell-based, Sprague-Dawley rat; conditions: treated for 48 h
Description: as §1
Cells were treated with hPLA2-II for 48 h, and fixed in situ in 1-5% (especially 2.5%) glutaraldehyde in PBS for 2 h at 4° C. and post-fixed in 0.5-2% (especially 1% osmium tetraoxide). To increase contrast, cells were double-fixed in saturated thiocarbohydrazide-osmium. Afterwards, samples were dehydrated using a graded series of ethanol from 50-100%. Tissue culture dishes were embedded in Araldite or Epoxy resin (especially Epon 812), cured in vacuo for 48 h at 60-70° C. and sectioned. […]

## CCc1c(C(=O)C(N)=O)c2c(OCC(=O)O)cccc2n1Cc1ccccc1 [Example 1, [[3-(2-Amino-1,2-dioxoethyl)-2-ethyl-1-(phenylmethyl)-1H-indol-4-yl]oxy]acetic acid]
[1]; 3 μM hPLA2-II, 48 well-cultured neuron, FIG. 4
  suppression of hPLA2-II-induced neuronal death (MTT reducing activity), co-treatment: suppressed neuronal death completely depending on its concentration

## CCc1c(C(=O)C(N)=O)c2c(OCC(=O)O)cccn2c1Cc1ccccc1-c1ccccc1 [Example 2, (8-(Carboxymethyloxy)-2-ethyl-3-(o-phenylbenzyl)indolizin-1-yl)glyoxylamide]
[1]; 1 μM hPLA2-II, compound added at 10 μM final concentration at indicated time after hPLA2-II, FIG. 3
  time after hPLA2-II treatment within which post-treatment with compound suppressed neuronal death completely: ≤ 10 h

## CCN(CC)CCCC(C)Nc1c2ccc(Cl)cc2nc2ccc(OC)cc12 (centres unmarked) [quinacrine]
[2]
  infarct-size: reduces infarct-size

B1: hPLA2-II: human PLA2-II, used to induce neuronal death in cultured cortical neurons (protein, UniProt P14555 21-144, looked up)
Phospholipase A2, membrane …: NLVNFHRMIKLTTGKEAALSYGFYGCHCGVGGRGSPKDATDRCCVTHDCCYKRLEKRGCGTKFLSYKFSNSGSRITCAKQDSCRSQLCECDKAAATCFARNKTTYNKKYQYYSNKHCRGSTPRC
[3]; compared with untreated neurons
  morphology of neurons (cell bodies, neurites) after hPLA2-II treatment: shrank cell bodies and lost their neurites
[3]; electron microscope, compared with untreated cells, FIG. 1B
  ultrastructural changes of neurons after hPLA2-II treatment: condensation and fragmentation of nuclear chromatin, lost of intracellular organelle other than mitochondria and blebbing of plasma membranes
